In article PMC314469, “Protein Interaction Networks by Proteome Peptide Scanning” (PLoS Biology, 2004):

Tested on: Myo5 SH3 domain
Assay: SPOT analysis of cellulose-bound peptides (WISE), Myo5 SH3 domain (Dataset S4)
Type: binding, Saccharomyces cerevisiae
Conditions: SPOT analysis of cellulose-bound peptides probed with Myo5 SH3 domain; normalized value

SLTSLPPPPPPQFS
The normalized value in BLU units (SPOT analysis, Myo5 SH3): 7261.1 BLU
